Measurements: patent publication US12281122B1, “PI3K inhibitors” (Cogent Biosciences, Inc., priority 2023, dated 2025)

Tests used:
PI3Kα = PI3Kα (Homo sapiens, UniProt P42336); experiment: PI3Kα enzyme assay (Transcreener ADP2 TR-FRET Red Assay); type: biochemical; conditions: purified recombinant full-length protein; 2 hours pre-incubation with compound; read-out: PI3Kα WT IC50
How it was run: (§1)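 Purified recombinant full-length enzymes pre-incubated 2 h at room temperature with compounds (11-point 1:3 dilutions, typically 50,000–0.85 nM), then started with ATP/PI(4,5)P2 diC8 and run 60 min at room temperature in 40 mM HEPES pH 7.5, 20 mM NaCl, 25 mM MgCl2, 0.01% Triton X-100. ADP detected by TR-FRET 665/615 ratio; IC50 from four-parameter fit of percent of control.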

PI3Kα H1047R = PI3Kα H1047R (Homo sapiens, UniProt P42336, H1047R); experiment: PI3Kα H1047R enzyme assay (Transcreener ADP2 TR-FRET Red Assay); type: biochemical; conditions: purified recombinant full-length protein; 2 hours pre-incubation with compound
Sequence of PI3Kα H1047R (P42336 whole entry H1047R): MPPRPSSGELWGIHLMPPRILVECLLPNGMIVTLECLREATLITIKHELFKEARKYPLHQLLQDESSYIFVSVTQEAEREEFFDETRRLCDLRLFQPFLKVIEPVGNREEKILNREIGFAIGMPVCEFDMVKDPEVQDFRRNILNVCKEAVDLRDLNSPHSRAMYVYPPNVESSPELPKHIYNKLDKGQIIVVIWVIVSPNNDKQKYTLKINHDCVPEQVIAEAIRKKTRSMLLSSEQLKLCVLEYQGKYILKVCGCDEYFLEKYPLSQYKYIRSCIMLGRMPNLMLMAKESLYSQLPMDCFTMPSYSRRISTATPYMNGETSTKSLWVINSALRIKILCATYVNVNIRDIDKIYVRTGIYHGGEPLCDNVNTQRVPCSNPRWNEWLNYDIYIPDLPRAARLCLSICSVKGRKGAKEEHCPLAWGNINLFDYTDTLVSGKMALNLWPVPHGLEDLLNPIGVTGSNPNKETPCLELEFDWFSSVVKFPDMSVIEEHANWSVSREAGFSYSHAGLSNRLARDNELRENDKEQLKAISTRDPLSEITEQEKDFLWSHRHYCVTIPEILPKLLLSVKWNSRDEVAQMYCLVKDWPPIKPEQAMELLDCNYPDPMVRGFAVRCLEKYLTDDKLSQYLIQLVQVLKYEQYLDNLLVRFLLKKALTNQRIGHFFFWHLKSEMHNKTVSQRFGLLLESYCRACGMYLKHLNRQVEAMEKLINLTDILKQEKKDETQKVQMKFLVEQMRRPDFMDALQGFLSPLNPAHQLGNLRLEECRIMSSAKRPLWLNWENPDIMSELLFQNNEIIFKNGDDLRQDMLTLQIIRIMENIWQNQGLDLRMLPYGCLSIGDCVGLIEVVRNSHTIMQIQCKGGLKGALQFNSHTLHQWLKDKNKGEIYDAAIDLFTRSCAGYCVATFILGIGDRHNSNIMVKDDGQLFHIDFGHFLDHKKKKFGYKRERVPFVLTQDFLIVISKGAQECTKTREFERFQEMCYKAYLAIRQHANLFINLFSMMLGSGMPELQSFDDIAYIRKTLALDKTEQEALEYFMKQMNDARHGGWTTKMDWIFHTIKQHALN
Sequence of PI3Kα H1047R (P27986 2-724 partner): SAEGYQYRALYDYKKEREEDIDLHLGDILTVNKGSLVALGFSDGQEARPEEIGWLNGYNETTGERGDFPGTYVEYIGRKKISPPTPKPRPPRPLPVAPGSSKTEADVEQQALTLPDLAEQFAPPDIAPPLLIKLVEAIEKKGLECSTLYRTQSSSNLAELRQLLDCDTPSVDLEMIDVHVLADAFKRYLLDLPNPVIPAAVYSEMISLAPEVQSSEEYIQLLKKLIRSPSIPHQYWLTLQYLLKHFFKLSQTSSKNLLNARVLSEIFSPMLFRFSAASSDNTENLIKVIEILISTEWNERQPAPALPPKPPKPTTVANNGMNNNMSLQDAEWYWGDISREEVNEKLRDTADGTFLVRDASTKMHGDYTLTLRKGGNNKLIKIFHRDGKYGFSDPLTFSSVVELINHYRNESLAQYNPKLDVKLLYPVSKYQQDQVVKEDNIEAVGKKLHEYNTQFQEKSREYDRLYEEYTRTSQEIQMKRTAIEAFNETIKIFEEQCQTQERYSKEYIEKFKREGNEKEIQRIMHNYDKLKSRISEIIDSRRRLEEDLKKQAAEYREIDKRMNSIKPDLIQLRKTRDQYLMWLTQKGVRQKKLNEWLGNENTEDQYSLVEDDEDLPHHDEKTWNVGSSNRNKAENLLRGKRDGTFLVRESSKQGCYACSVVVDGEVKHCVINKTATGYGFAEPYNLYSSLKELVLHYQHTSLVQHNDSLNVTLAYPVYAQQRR
How it was run: as §1

[1] = tested on: T47D (PI3Kα-H1047R) cell line; experiment: HTRF phospho-AKT(S473) cell assay in T47D cells; type: cell-based, human; conditions: Homo sapiens; T47D (PI3Kα-H1047R) cells, HTRF phospho-AKT(S473), 2 hours compound incubation
How it was run: (§2)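 Cells plated overnight (T47D in RPMI/10% FBS/0.2 units/mL insulin; SKBR3 in McCoy's 5A/10% FBS), then given 12-point 1:3 compound series (top 5 μM T47D, 10 μM SKBR3; ≤0.5% DMSO) for 2 h at 37° C. SKBR3 stimulated with 70 ng/ml PDGF-BB for final 15 min. Lysate pAKT(S473) by HTRF; IC50 calculated.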

[2] = tested on: SKBR3 (PI3Kα-Wild Type) cell line; experiment: HTRF phospho-AKT(S473) cell assay in SKBR3 cells; type: cell-based, human; conditions: Homo sapiens, SK-BR-3; SKBR3 (PI3Kα-Wild Type) cells, HTRF phospho-AKT(S473), 2 hours compound incubation, PDGF-BB stimulated
How it was run: as §2

Sequence of PI3Kα (P42336 whole entry): as the sequence (P42336 whole entry H1047R) above, with R1047H counted along it
Sequence of PI3Kα (P27986 2-724 partner): as the sequence (P27986 2-724 partner) above

Compound | IC50 (PI3Kα) | IC50 (PI3Kα H1047R) | IC50 [1] | IC50 [2]
Cc1cc([C@@H](C)Nc2ccccc2S(=O)(=O)NC(=O)C(F)F)c2nc(N3Cc4ccc(F)cc4C3)n(C)c(=O)c2c1 [Compound 75, (R)-2,2-difluoro-N-((2-((1-(2-(5-fluoroisoindolin-2-yl)-3,6-dimethyl-4-oxo-3,4-dihydroquinazolin-8-yl)ethyl)amino)phenyl)sulfonyl)acetamide] | ≥ 1 µM | ≥ 1 µM | 1 to 5 µM | ≥ 5 µM
Cc1cc([C@@H](C)Nc2ccc(Cl)nc2C(=O)NS(C)(=O)=O)c2nc(N3CCC(F)(F)C[C@@H]3C)n(C)c(=O)c2c1 (mixture of isomers) [Compound 12, 6-chloro-3-(((R)-1-(2-((S)-4,4-difluoro-2-methylpiperidin-1-yl)-3,6-dimethyl-4-oxo-3,4-dihydroquinazolin-8-yl)ethyl)amino)-N-(methylsulfonyl) picolinamide AND 6-chloro-3-(((R)-1-(2-((R)-4,4-difluoro-2-methylpiperidin-1-yl)-3,6-dimethyl-4-oxo-3,4-dihydroquinazolin-8-yl)ethyl)amino)-N-(methylsulfonyl) picolinamide] | ≥ 1 µM | 0.25 to 0.5 µM | 0.25 to 0.5 µM | 1 to 5 µM
C[C@@H](Nc1ccc[nH]c1=O)c1cc(F)cc2c(=O)n(C)c(N3Cc4cnn(C)c4C3)nc12 [Compound 98, (R)-6-fluoro-3-methyl-2-(1-methyl-4,6-dihydropyrrolo[3,4-c]pyrazol-5(1H)-yl)-8-(1-((2-oxo-1,2-dihydropyridin-3-yl)amino)ethyl)quinazolin-4(3H)-one] | ≥ 1 µM | ≥ 1 µM | 1 to 5 µM | ≥ 5 µM
Cc1cc([C@@H](C)Nc2ccc(Cl)nc2C(=O)NS(C)(=O)=O)c2nc(N3C[C@@H]4C[C@H]3CO4)n(C)c(=O)c2c1 [Compound 27, 3-(((R)-1-(2-((1S,4S)-2-oxa-5-azabicyclo[2.2.1]heptan-5-yl)-3,6-dimethyl-4-oxo-3,4-dihydroquinazolin-8-yl)ethyl)amino)-6-chloro-N-(methylsulfonyl) picolinamide] | ≥ 1 µM | 0.5 to 1 µM | < 0.25 µM | 1 to 5 µM
Cc1cc([C@@H](C)Nc2ccc(Cl)nc2C(=O)NS(C)(=O)=O)c2nc(NCc3ccc(F)cc3C)n(C)c(=O)c2c1 [Compound 17, (R)-6-chloro-3-((1-(2-((4-fluoro-2-methylbenzyl)amino)-3,6-dimethyl-4-oxo-3,4-dihydroquinazolin-8-yl)ethyl)amino)-N-(methylsulfonyl) picolinamide] | ≥ 1 µM | ≥ 1 µM | 1 to 5 µM | ≥ 5 µM
Cc1cc([C@@H](C)Nc2ccc(Cl)nc2C(=O)NS(C)(=O)=O)c2nc(N3CC4(COC4)C3)n(C)c(=O)c2c1 [Compound 46, (R)-6-chloro-3-((1-(3,6-dimethyl-4-oxo-2-(2-oxa-6-azaspiro[3.3]heptan-6-yl)-3,4-dihydroquinazolin-8-yl)ethyl)amino)-N-(methylsulfonyl) picolinamide] | ≥ 1 µM | ≥ 1 µM | 0.5 to 1 µM | 1 to 5 µM
Cc1cc([C@@H](C)Nc2ccc(Cl)nc2C(=O)NS(C)(=O)=O)c2nc(NC34CC(C3)C4)n(C)c(=O)c2c1 [Compound 6, (R)-3-((1-(2-(bicyclo[1.1.1]pentan-1-ylamino)-3,6-dimethyl-4-oxo-3,4-dihydroquinazolin-8-yl)ethyl)amino)-6-chloro-N-(methylsulfonyl) picolinamide] | ≥ 1 µM | ≥ 1 µM | 1 to 5 µM | ≥ 5 µM
CCn1cc2c(n1)CN(c1nc3c([C@@H](C)Nc4ccc(Cl)nc4C(=O)NS(C)(=O)=O)cc(C)cc3c(=O)n1C)C2 [Compound 44, (R)-6-chloro-3-((1-(2-(2-ethyl-2,6-dihydropyrrolo[3,4-c]pyrazol-5(4H)-yl)-3,6-dimethyl-4-oxo-3,4-dihydroquinazolin-8-yl)ethyl)amino)-N-(methylsulfonyl) picolinamide] | ≥ 1 µM | 0.1 to 0.25 µM | < 0.25 µM | 1 to 5 µM
C[C@@H](Nc1ccc(Cl)nc1C(=O)NS(C)(=O)=O)c1cc(F)cc2c(=O)n(C)c(-c3cncc(F)c3)nc12 [Compound 90, (R)-6-chloro-3-((1-(6-fluoro-2-(5-fluoropyridin-3-yl)-3-methyl-4-oxo-3,4-dihydroquinazolin-8-yl)ethyl)amino)-N-(methylsulfonyl) picolinamide] | ≥ 1 µM | ≥ 1 µM | 1 to 5 µM | 1 to 5 µM
Cc1cc([C@@H](C)Nc2ccc(Cl)nc2C(=O)NS(C)(=O)=O)c2nc(-c3ccc(F)cn3)n(C)c(=O)c2c1 [Compound 88, (R)-6-chloro-3-((1-(2-(5-fluoropyridin-2-yl)-3,6-dimethyl-4-oxo-3,4-dihydroquinazolin-8-yl)ethyl)amino)-N-(methylsulfonyl) picolinamide] | ≥ 1 µM | ≥ 1 µM | 0.25 to 0.5 µM | 1 to 5 µM
Cc1cc([C@@H](C)Nc2ccc(Cl)nc2C(=O)NS(C)(=O)=O)c2nc(N(C)C)n(C)c(=O)c2c1 [Compound 40, (R)-6-chloro-3-((1-(2-(dimethylamino)-3,6-dimethyl-4-oxo-3,4-dihydroquinazolin-8-yl)ethyl)amino)-N-(methylsulfonyl) picolinamide] | ≥ 1 µM | ≥ 1 µM | 0.25 to 0.5 µM | 1 to 5 µM
C[C@@H](Nc1ccc(Cl)nc1C(=O)NS(C)(=O)=O)c1cc(F)cc2c(=O)n(C)c(N3CC4CC4C3)nc12 (stereo partly drawn) [Compound 29, 3-(((1R)-1-(2-(3-azabicyclo[3.1.0]hexan-3-yl)-6-fluoro-3-methyl-4-oxo-3,4-dihydroquinazolin-8-yl)ethyl)amino)-6-chloro-N-(methylsulfonyl) picolinamide] | ≥ 1 µM | 0.25 to 0.5 µM | 0.25 to 0.5 µM | 1 to 5 µM
Cc1cc([C@@H](C)Nc2ccc(Cl)nc2C(=O)NS(C)(=O)=O)c2nc(N3Cc4cnn(C)c4C3)n(C)c(=O)c2c1 [Compound 4, (R)-6-chloro-3-((1-(3,6-dimethyl-2-(1-methyl-4,6-dihydropyrrolo[3,4-c]pyrazol-5(1H)-yl)-4-oxo-3,4-dihydroquinazolin-8-yl)ethyl)amino)-N-(methylsulfonyl) picolinamide] | ≥ 1 µM | 0.25 to 0.5 µM | < 0.25 µM | 1 to 5 µM
COc1ccc(N[C@H](C)c2cc(C)cc3c(=O)n(C)c(N4Cc5ccc(F)cc5C4)nc23)c(C(=O)NS(C)(=O)=O)n1 [Compound 65, (R)-3-((1-(2-(5-fluoroisoindolin-2-yl)-3,6-dimethyl-4-oxo-3,4-dihydro-quinazolin-8-yl)ethyl)amino)-6-methoxy-N-(methylsulfonyl) picolinamide] | ≥ 1 µM | ≥ 1 µM | 0.5 to 1 µM | 1 to 5 µM
Cc1cc([C@@H](C)Nc2ccc(Cl)nc2C(=O)NS(C)(=O)=O)c2nc(NC3CCC3)n(C)c(=O)c2c1 [Compound 10, (R)-6-chloro-3-((1-(2-(cyclobutylamino)-3,6-dimethyl-4-oxo-3,4-dihydroquinazolin-8-yl)ethyl)amino)-N-(methylsulfonyl) picolinamide] | ≥ 1 µM | 0.25 to 0.5 µM | 1 to 5 µM | ≥ 5 µM
Cc1cc([C@@H](C)Nc2ccc(Cl)nc2C(=O)NS(C)(=O)=O)c2nc(N3CCc4ccccc4[C@H]3C)n(C)c(=O)c2c1 (mixture of isomers) [Compound 19, 6-chloro-3-(((R)-1-(3,6-dimethyl-2-((R)-1-methyl-3,4-dihydroisoquinolin-2(1H)-yl)-4-oxo-3,4-dihydroquinazolin-8-yl)ethyl)amino)-N-(methylsulfonyl) picolinamide AND 6-chloro-3-(((R)-1-(3,6-dimethyl-2-((S)-1-methyl-3,4-dihydroisoquinolin-2(1H)-yl)-4-oxo-3,4-dihydroquinazolin-8-yl)ethyl)amino)-N-(methylsulfonyl) picolinamide] | ≥ 1 µM | ≥ 1 µM | 0.5 to 1 µM | ≥ 5 µM
Cc1cc([C@@H](C)Nc2ccc(Cl)nc2C(=O)NS(C)(=O)=O)c2nc(N3Cc4cn(CC(F)(F)F)nc4C3)n(C)c(=O)c2c1 [Compound 54, (R)-6-chloro-3-((1-(3,6-dimethyl-4-oxo-2-(2-(2,2,2-trifluoroethyl)-2,6-dihydropyrrolo[3,4-c]pyrazol-5(4H)-yl)-3,4-dihydroquinazolin-8-yl)ethyl)amino)-N-(methylsulfonyl) picolinamide] | ≥ 1 µM | 0.1 to 0.25 µM | < 0.25 µM | 1 to 5 µM
C[C@@H](Nc1ccc(Cl)nc1C(=O)NS(C)(=O)=O)c1cc(F)cc2c(=O)n(C)c(N3CCC(F)(F)CC3)nc12 [Compound 3, (R)-6-chloro-3-((1-(2-(4,4-difluoropiperidin-1-yl)-6-fluoro-3-methyl-4-oxo-3,4-dihydroquinazolin-8-yl)ethyl)amino)-N-(methylsulfonyl) picolinamide] | ≥ 1 µM | 0.25 to 0.5 µM | < 0.25 µM | 1 to 5 µM
